Results reported in ChEMBL document CHEMBL4673276, “Inhibition of the NorA efflux pump of S. aureus by (Z)-5-(4-Fluorobenzylidene)-Imidazolidines” (Bioorg Med Chem Lett, 2021).
Values after ≈ are worked out from the molar mass of the structure shown. Values belong to the compound of their own block, whether it stands above or below them. Active and inactive are the calls of the source. No cut-off for these calls is given here.

How the values were obtained:
[1] = Toxicity in brine shrimp assessed as mortality at 1 mg/ml; settings: artemia salina, read-out: Activity
[2] = molecular target: T1, Quinolone resistance protein NorA (Staphylococcus aureus) (UniProt P0A0J7); experiment: Inhibition of NorA in Staphylococcus aureus SA-1199B assessed as potentiation of ciprofloxacin -mediated antibacterial activity by measuring maximal reduction in ciprofloxacin MIC
T1 sequence (whole entry): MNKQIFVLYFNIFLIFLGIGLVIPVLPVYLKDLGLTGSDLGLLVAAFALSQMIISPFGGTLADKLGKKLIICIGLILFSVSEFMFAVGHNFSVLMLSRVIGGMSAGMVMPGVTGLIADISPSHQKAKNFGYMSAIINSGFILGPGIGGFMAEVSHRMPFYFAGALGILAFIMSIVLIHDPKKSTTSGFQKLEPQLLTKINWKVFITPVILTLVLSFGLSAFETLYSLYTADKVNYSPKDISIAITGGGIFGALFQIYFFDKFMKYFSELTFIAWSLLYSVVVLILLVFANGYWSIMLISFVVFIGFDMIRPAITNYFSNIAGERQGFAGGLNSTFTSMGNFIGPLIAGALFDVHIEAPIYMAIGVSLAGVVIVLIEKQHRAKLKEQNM

[3] = molecular target: T1, Quinolone resistance protein NorA (Staphylococcus aureus); experiment: Inhibition of NorA in Staphylococcus aureus SA-1199B assessed as potentiation of norfloxacin-mediated antibacterial activity by measuring fold reduction in ciprofloxacin MIC
[4] = molecular target: T1, Quinolone resistance protein NorA (Staphylococcus aureus); experiment: Inhibition of NorA in Staphylococcus aureus SA-1199B assessed as potentiation of norfloxacin-mediated antibacterial activity by measuring maximal reduction in norfloxacin MIC
Staphylococcus aureus [5] = experiment: Antibacterial activity against Staphylococcus aureus ATCC 25923; type: functional
Staphylococcus aureus [6] = experiment: Antibacterial activity against Staphylococcus aureus SA-1199B; type: functional
[7] = molecular target: T1, Quinolone resistance protein NorA (Staphylococcus aureus); experiment: Inhibition of NorA in staphylococcus aureus SA-1199B assessed as ethidium bromide accumulation
[8] = molecular target: T1, Quinolone resistance protein NorA (Staphylococcus aureus); experiment: Inhibition of NorA in Staphylococcus aureus SA-1199B assessed as potentiation of norfloxacin-mediated antibacterial activity by measuring fold reduction in norfloxacin MIC
[9] = molecular target: T1, Quinolone resistance protein NorA (Staphylococcus aureus); experiment: Inhibition of NorA in staphylococcus aureus SA-1199B assessed as increase in fluorescence emission of ethidium bromide accumulation for 25 mins by fluorometric assays

SMILES: O=C1NC(=S)N/C1=C\c1ccc(F)cc1
- mortality at 1 mg/ml [1]: 90%
- MEC [2]: 64 µg/mL
- fold change (FC) [3]: 3.2
- MEC [4]: 64 µg/mL
- MIC (Staphylococcus aureus [5]): 512 µg/mL (≈ 2300 µM)
- MIC (Staphylococcus aureus [6]): 512 µg/mL (≈ 2300 µM)
- inhibition [7]: Active
- fold change (FC) [8]: 4
- inhibition [9]: Active

SMILES: CCn1cc(C(=O)O)c(=O)c2cc(F)c(N3CCNCC3)cc21 [NORFLOXACIN]
- MIC (Staphylococcus aureus [6]): 64 µg/mL (≈ 200 µM)

SMILES: O=C1NC(=O)/C(=C/c2ccc(F)cc2)N1
- mortality at 1 mg/ml [1]: 47%
- MEC [2]: 64 µg/mL
- fold change (FC) [3]: 3.2
- MEC [4]: 64 µg/mL
- MIC (Staphylococcus aureus [5]): 512 µg/mL (≈ 2480 µM)
- MIC (Staphylococcus aureus [6]): 512 µg/mL (≈ 2480 µM)
- inhibition [7]: Active
- fold change (FC) [8]: 6.4
- inhibition [9]: Active

More lines, now with the values ahead:

- MIC (Staphylococcus aureus [6]): ≥ 1020 µg/mL
SMILES: O=C1NC(=O)/C(=C/c2ccccn2)N1

- MIC (Staphylococcus aureus [6]): ≥ 1020 µg/mL
SMILES: O=C1NC(=S)N/C1=C\c1cccs1

- MIC (Staphylococcus aureus [6]): ≥ 1020 µg/mL
SMILES: O=C1NC(=O)/C(=C/c2cccs2)N1

- inhibition [9]: Active
SMILES: CN(C)CCCN1c2ccccc2Sc2ccc(Cl)cc21

- MIC (Staphylococcus aureus [6]): ≥ 1020 µg/mL
SMILES: O=C1NC(=S)N/C1=C\c1ccccn1
